Laboratory results published in the supplement of paper PMC10307832.

Tests used:
Assay in all cases: relative viability (nuclei count vs DMSO), 5 days (fraction); higher = more cells survive
[1] = compound: CCC1=CN=CN=C1N2CCN(CC2)CC3=NC4=C(N3)C=C(C=C4)C(F)(F)F + Nc1nc2[nH]cc(CCc3ccc(C(=O)N[C@@H](CCC(=O)O)C(=O)O)cc3)c2c(=O)[nH]1 [Pemetrexed] (partner 0.2 µM)
Procedure, shortened: (§1)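 After 5 days of treatment, lung cancer cells in 1536-well plates were fixed and stained in a single step (final 0.05% Triton X-100, 1% formaldehyde, 1 ug/ml Hoechst) and their nuclei counted on 4× images. Treatment had been applied by pin tool the day after seeding as one drug alone or as a fixed anchor-drug dose with five library-drug doses (not always all listed) in √10 steps. Relative viability is the nuclei count of treated wells divided by that of vehicle wells, and values are medians of duplicate plates.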

[2] = compound: CCn1c(-c2nonc2N)nc2cnc(Oc3cccc(NC(=O)c4ccc(OCCN5CCOCC5)cc4)c3)cc21 + NC(=O)Nc1cc(-c2cccc(F)c2)sc1C(=O)N[C@H]1CCCNC1 [AZD7762] (partner 0.2 µM)
Procedure, shortened: as §1

Mirin + Foretinib = compound: N=C1NC(=O)/C(=C/c2ccc(O)cc2)S1 [Mirin] + COc1cc2c(Oc3ccc(NC(=O)C4(C(=O)Nc5ccc(F)cc5)CC4)cc3F)ccnc2cc1OCCCN1CCOCC1 [Foretinib] (partner 0.25 µM)
Procedure, shortened: as §1

Mirin + Dasatinib = compound: N=C1NC(=O)/C(=C/c2ccc(O)cc2)S1 [Mirin] + Cc1nc(Nc2ncc(C(=O)Nc3c(C)cccc3Cl)s2)cc(N2CCN(CCO)CC2)n1 [Dasatinib] (partner 0.075 µM)
Procedure, shortened: as §1

Cell Line | relative viability ([1]; first compound 0.04 µM) | relative viability ([1]; first compound 0.1265 µM) | relative viability ([1]; first compound 0.4 µM) | relative viability ([1]; first compound 1.265 µM) | relative viability ([1]; first compound 4 µM) | relative viability ([2]; first compound 0.04 µM) | relative viability ([2]; first compound 0.1265 µM) | relative viability ([2]; first compound 0.4 µM) | relative viability ([2]; first compound 1.265 µM) | relative viability ([2]; first compound 4 µM) | relative viability (Mirin + Foretinib; first compound 0.25 µM) | relative viability (Mirin + Foretinib; first compound 0.7906 µM) | relative viability (Mirin + Foretinib; first compound 2.5 µM) | relative viability (Mirin + Foretinib; first compound 7.906 µM) | relative viability (Mirin + Foretinib; first compound 25 µM) | relative viability (Mirin + Dasatinib; first compound 0.25 µM) | relative viability (Mirin + Dasatinib; first compound 0.7906 µM) | relative viability (Mirin + Dasatinib; first compound 2.5 µM) | relative viability (Mirin + Dasatinib; first compound 7.906 µM) | relative viability (Mirin + Dasatinib; first compound 25 µM)
HOP-62 | 0.283 | 0.293 | 0.326 | 0.275 | 0.283 | 0.774 | 0.443 | 0.468 | 0.227 | 0.19 | 1.17 | 1.24 | 1.11 | 1.1 | 1.21 | 0.699 | 0.756 | 0.743 | 0.671 | 0.56
HCC-366 | 0.174 | 0.22 | 0.156 | 0.137 | 0.15 | 0.233 | 0.123 | 0.101 | 0.0314 | 0.0325 | 0.855 | – | 0.888 | 0.997 | 0.869 | 0.677 | – | 0.624 | 0.588 | 0.486
NCI-H2405 | 1.02 | 1.05 | 0.992 | – | 1.15 | 0.446 | 0.18 | 0.14 | 0.144 | 0.137 | 1.04 | 1.04 | 1.01 | 1.03 | 1.07 | 0.195 | 0.252 | 0.206 | 0.206 | 0.192
LXF-289 | 0.938 | 0.777 | 0.915 | 0.977 | 0.788 | 1.19 | 1.23 | 0.638 | 0.506 | 0.224 | 1.04 | 1.03 | 0.939 | 1.09 | 1.01 | 0.26 | 0.214 | 0.202 | 0.207 | 0.202
NCI-H1793 | 0.862 | 0.786 | 0.613 | 0.52 | 0.82 | 0.483 | 0.284 | 0.276 | 0.179 | 0.157 | 0.731 | – | 0.739 | 0.777 | 0.559 | 0.481 | – | 0.391 | 0.409 | 0.344
LU99A | 0.187 | 0.169 | 0.178 | 0.177 | 0.248 | 0.439 | 0.436 | 0.241 | 0.296 | 0.252 | 0.71 | 0.631 | 0.795 | 0.71 | 0.566 | 0.574 | 0.564 | 0.509 | 0.423 | 0.531
PC-3 [JPC-3] | – | 0.983 | 1.07 | 0.959 | 1.09 | 0.892 | 0.889 | 0.828 | 0.56 | 0.658 | 1.05 | 1.13 | 1.02 | 1.14 | 1.3 | 1.03 | 0.979 | 1.04 | 0.981 | 1.08
NCI-H2085 | 0.818 | 0.789 | 0.84 | 0.772 | 0.845 | 1.09 | 0.924 | 0.927 | 0.634 | 0.787 | 0.948 | 0.999 | 0.941 | 1.1 | 1 | 0.229 | 0.207 | 0.28 | 0.252 | 0.237
NCI-H2170 | 0.265 | 0.266 | 0.291 | 0.256 | 0.263 | 0.763 | 0.74 | 0.749 | 0.577 | 0.478 | 1.05 | 1 | 1.02 | 0.928 | 0.98 | 0.551 | 0.498 | 0.519 | 0.489 | 0.468
HCC-78 | 0.913 | 0.829 | 0.905 | 0.898 | 0.952 | 0.865 | 0.821 | – | 0.617 | 0.906 | 0.538 | 0.636 | 0.535 | 0.615 | 0.584 | 0.361 | 0.283 | 0.577 | 0.374 | 0.31
NCI-H1395 | 0.862 | 0.754 | 0.896 | – | 0.845 | 0.356 | 0.36 | 0.359 | 0.352 | 0.333 | 0.908 | 0.994 | 1.03 | 0.977 | 1.14 | 0.439 | 0.434 | 0.429 | 0.376 | 0.418
H3255 | 0.59 | 0.552 | 0.59 | 0.568 | 0.575 | 0.967 | 0.737 | 0.742 | 0.383 | 0.481 | 1.11 | 0.825 | 0.929 | 0.676 | 0.998 | 0.383 | 0.315 | 0.347 | 0.275 | 0.381
HCC-15 | 0.217 | 0.204 | 0.224 | 0.236 | 0.218 | 1.3 | 1.51 | 0.974 | 1.05 | 0.987 | 1.1 | 1 | 1.06 | 0.819 | 0.882 | 0.608 | 0.655 | 0.599 | 0.632 | 0.404
ChaGo-K-1 | 0.253 | 0.261 | 0.275 | 0.258 | 0.262 | 0.978 | 0.867 | 0.738 | 0.596 | 0.581 | 0.963 | 0.921 | 0.965 | 0.841 | 0.652 | 0.504 | 0.575 | 0.541 | 0.542 | 0.39
EMC-BAC-2 | 0.436 | 0.43 | 0.455 | 0.418 | 0.469 | 1.17 | 1.01 | 0.504 | 0.476 | 0.32 | 0.976 | 0.998 | 1.07 | 1.06 | 1.09 | 0.328 | 0.324 | 0.349 | 0.271 | 0.249
LCLC-103H | 0.399 | 0.449 | 0.462 | 0.446 | 0.467 | 0.837 | 0.743 | 0.422 | 0.397 | 0.404 | 0.909 | 0.825 | 0.839 | 0.955 | 0.8 | 0.44 | 0.469 | 0.491 | 0.348 | 0.422
LK-2 | 0.281 | 0.259 | 0.253 | 0.199 | 0.302 | 0.525 | 0.583 | 0.156 | 0.113 | 0.284 | 1.24 | – | 1.02 | 0.977 | 0.586 | 0.275 | – | 0.272 | 0.194 | 0.178
